The values that follow come from paper PMC12494831, “Discovery of new pyridine 3-carboxylic acid-based pharmacophores as dual anti-inflammatory and anti-hyperglycemic agents” (Scientific Reports, 2025).

As usually defined, the IC50 is the concentration that inhibits the measured activity by half. The term inhibition denotes how much of the control response was suppressed.

One test addresses T1, α-amylase (EC.3.2.1.1) (Homo sapiens, UniProt P04746).
T1 sequence (P04746 16-511): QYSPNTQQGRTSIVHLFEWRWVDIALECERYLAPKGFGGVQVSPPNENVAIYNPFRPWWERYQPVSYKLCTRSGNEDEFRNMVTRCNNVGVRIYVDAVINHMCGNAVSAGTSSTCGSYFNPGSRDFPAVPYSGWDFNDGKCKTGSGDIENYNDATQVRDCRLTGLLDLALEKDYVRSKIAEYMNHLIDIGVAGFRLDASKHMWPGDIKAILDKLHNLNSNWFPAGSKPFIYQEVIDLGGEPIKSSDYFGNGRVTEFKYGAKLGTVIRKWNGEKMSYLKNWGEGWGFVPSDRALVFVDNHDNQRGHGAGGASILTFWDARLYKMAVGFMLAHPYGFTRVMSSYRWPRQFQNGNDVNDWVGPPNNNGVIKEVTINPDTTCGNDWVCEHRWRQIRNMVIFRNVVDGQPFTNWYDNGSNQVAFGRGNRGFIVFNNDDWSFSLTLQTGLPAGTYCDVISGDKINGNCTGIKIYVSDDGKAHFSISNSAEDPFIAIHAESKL
Nature of the test: In vitro α-amylase inhibition (starch/DNS, 540 nm). Format: biochemical. The settings on record: for IC50: test concentrations 2-10 µg, read-out: α-Amylase IC50±SD (converted). The method, then:
α-Amylase enzyme and other chemical reagents are used for enzyme inhibitory activity. The characterized compounds are diluted in an analytical grad solvent (DMSO) system at 1 mg/mL solution concentration. The activity reaction of the synthesized analogues on the enzyme was treated at final concentrations of 2 to 10 µg. In the interaction between enzyme and compounds, 10 min incubation was maintained before the inhibitory activity started. The enzyme-receptor inhibition efficiency was calculated and compared with the positive control.
Sodium phosphate buffer 0.2 mM (pH 6.9 with 6 × 10^− 4 M NaCl) in 500 µL enzyme solution (0.5 mg/mL) was taken and incubated with test samples (2–10 µg/mL) at room temperature for 10 min. A starch (1%) solution of 500 µL with phosphate buffer was added to all test inhibitor samples; further, the tubes were incubated for 10 min at 28 °C. The reaction test tubes were incubated for another 5 min in the water bath (100 °C) after the addition of the color reagent dinitro salicylic acid and cooled at room temperature until reached. Finally, 10 mL of distilled water was mixed with each test tube, and the colored mixture was measured at a fixed wavelength of 540 nm. The absorbance without sample solution (blank) and control (buffer and standard drug sample) was measured at 540 nm. The α-amylase inhibition efficiency was validated using the following equation:2 [drawing 2]

Test [1] can be described thus: DPPH radical scavenging (517 nm). The settings on record: for IC50: read-out: DPPH IC50±SD. As for the experimental part: (§1) The experimental method principle relies on the degradation of the purple color of the DPPH radical and the blue color reduction of the ABTS cation radical. This is due to consuming the electron or hydrogen radical from the antioxidant (A-H). Both assays were measured at 517 nm and 734 nm, respectively. The distinction of color changes illustrates the potential scavenging activity of the inhibitor molecules in terms of hydrogen-donating proficiency. From this, we can conclude the anti-oxidant efficacy.
Methanolic DPPH solution (0.15 mM) was prepared, and 1.0 mL of DPPH solution was mixed with 3.0 mL of synthesized molecules at different concentrations (20 µM to 100 µM). The mixture was constantly swirled and stored RT for 30 min, followed by absorbance measurement at 517 nm.

A further test relates to human RBC. In words: Anti-inflammatory activity: hypotonic solution-induced human RBC hemolysis (560 nm). The settings on record: for IC50: induced human RBC hemolysis, read-out: Inflammatory IC50±SD. Format: cell-based. The method, then: All synthesized compounds are validated in human RBC (blood sample); the blood sample was collected from a healthy volunteer in an EDTA tube. The EDTA tube further proceeded with centrifugation at 3000 rpm for 30 min. A supernatant (which contains plasma and leucocytes) solution was isolated, and the obtained RBC (red blood cells) was further treated with Alsever’s reagent. Alsever’s reagent was prepared as follows: sodium citrate (0.8 g, 2.6 mmol), dextrose (2 g, 11.0 mmol), citric acid (0.050 g, […]), and sodium chloride (0.42 g, 7.0 mmol) were solubilized in 100 mL of distilled water. The above mixture was centrifuged for 30 min at 3000 rpm. Then, colloidal blood cells were separated, carefully transferred, and washed with 0.85% of the isosaline solution; this process continued until a clear solution appeared. Employing coagulated RBC and generated human erythrocyte hemolysis, the anti-inflammatory activity and potential of the synthesized entities were evaluated. The tested compounds are prepared at different concentrations for the inhibition activity of inflammation, along with 100 µL of a purified RBC sample utilized. All characterized samples were followed by adding 5.0 mL of trisodium phosphate (10 mM) and 5.0 mL of sodium chloride (5.0 mM) buffer solutions. After the addition of the above mixtures, the test samples are incubated for 15 min at room temperature with RBC and hypotonic mixtures. After incubation, the mixture was centrifuged at 3000 rpm for 15 min. The final supernatant liquid solution was measured at 560 nm using a UV-visible spectrophotometer.3 [drawing 3]

Test [2] in a line: ABTS cation radical scavenging (734 nm). The settings on record: for IC50: read-out: ABTS IC50±SD. The method, then:
as §1
In brief, 7.0 mM ABTS in H2O and 2.5 mM potassium persulfate (1:1) were shaken well to generate ABTS cation radicals and kept in the dark at RT for 15–20 h before it is used for the experiment. After, the radical was mixed with the synthesized molecules at different concentrations (20 µM to 100 µM). The resultant solution was measured for absorbance at 734 nm. Ascorbic acid is the positive control for this experiment.1 [drawing 1]

For `C[C@H]1O[C@H](O[C@H]2[C@H](O)[C@@H](O)[C@@H](O[C@H]3[C@H](O)[C@@H](O)C(O)O[C@@H]3CO)O[C@@H]2CO)[C@H](O)[C@@H](O)[C@@H]1N[C@H]1C=C(CO)[C@@H](O)[C@H](O)[C@H]1O` (some centres unmarked) [Acarbose, reference compound], the “α-Amylase Inhibition %” value at α-amylase (EC.3.2.1.1) (2 µg) was 85.59%; at α-amylase (EC.3.2.1.1) (4 µg), 83.98%; at α-amylase (EC.3.2.1.1) (6 µg), 82.19%; at α-amylase (EC.3.2.1.1) (8 µg), 80.97%; on α-amylase (EC.3.2.1.1) (10 µg), 80.38%.

Consider `COC(=O)C=Cc1cccc(OC(=O)c2cccnc2)c1` [Compound 2f, 3-(3-Methoxy-3-oxoprop-1-en-1-yl)-phenyl nicotinate], for which the “DPPH Inhibition %” value is 35.31% in test [1] (20 µM); 38.4% in test [1] (40 µM); 41.11% in test [1] (60 µM); 43.18% in test [1] (80 µM); 45.7% in test [1] (100 µM). In addition, the IC50 in test [1] was 78.05 ± 0.08 µM; at α-amylase (EC.3.2.1.1), 4.71 µM; in the test with human RBC it was 65.24 ± 0.18 µM; in test [2], 81.05 ± 0.22 µM. The “α-Amylase Inhibition %” value is given as 79.2% on α-amylase (EC.3.2.1.1) (2 µg); 77.89% on α-amylase (EC.3.2.1.1) (4 µg); 56.22% on α-amylase (EC.3.2.1.1) (6 µg); 47.87% at α-amylase (EC.3.2.1.1) (8 µg); 36.74% on α-amylase (EC.3.2.1.1) (10 µg). In the test with human RBC, this compound had an inhibition at 20 µM of 31%. The compound also showed an inhibition at 40 µM in the test with human RBC of 37%. In the test on human RBC, the inhibition at 60 µM was 42%. Moreover, the inhibition at 80 µM in the test on human RBC stood at 45.6%. The compound also registered an inhibition at 100 µM with human RBC of 49%. The “ABTS Inhibition %” value is reported as 27.6% in test [2] (20 µM); 33.8% in test [2] (40 µM); 41.5% in test [2] (60 µM); 52% in test [2] (80 µM); 60.1% in test [2] (100 µM).

On to `COC(=O)C=Cc1ccccc1OC(=O)c1cccnc1` [Compound 2g, 2-(3-Methoxy-3-oxoprop-1-en-1-yl)phenyl nicotinate], for which the “DPPH Inhibition %” value in test [1] (20 µM) amounted to 34.94%; in test [1] (40 µM), 44.35%; in test [1] (60 µM), 46.41%; in test [1] (80 µM), 50.02%; in test [1] (100 µM), 61.07%. Further, the concentration for half-maximal inhibition (IC50) in test [1] is 81.81 ± 0.01 µM; at α-amylase (EC.3.2.1.1), 4.79 µM; with human RBC, 85.56 ± 0.25 µM; in test [2], 21.85 ± 0.21 µM. The “α-Amylase Inhibition %” value is 80.38% on α-amylase (EC.3.2.1.1) (2 µg); 73.64% on α-amylase (EC.3.2.1.1) (4 µg); 73.06% at α-amylase (EC.3.2.1.1) (6 µg); 40.84% at α-amylase (EC.3.2.1.1) (8 µg); 29.72% on α-amylase (EC.3.2.1.1) (10 µg). In the test with human RBC, at 20 µM the inhibition was 79%. The compound also showed an inhibition at 40 µM in the test with human RBC of 80.2%. The compound further returned an inhibition at 60 µM in the test on human RBC of 80.3%. Further, 80 µM produced 85.6% inhibition in the test on human RBC. In the test on human RBC, this compound registered an inhibition at 100 µM of 86%. Further, the “ABTS Inhibition %” value is 56% in test [2] (20 µM); 57% in test [2] (40 µM); 58.1% in test [2] (60 µM); 60.2% in test [2] (80 µM); 62% in test [2] (100 µM).
